Test results as given in patent EP0983275B1, “NOVEL TRIPTOLIDE DERIVATIVES USEFUL IN THE TREATMENT OF AUTOIMMUNE DISEASES” (priority 1997, dated 1998).
≈ marks a conversion by molar mass, not a printed value.

Columns and labels:
[1] = test system: adjuvant-induced arthritis; assay: Anti-inflammatory activity in the rat model of adjuvant-induced arthritis; format: in vivo, Male Wistar-Lewis rats; details: 12 consecutive days
Method: Following generally the procedure of Pearson and Wood, Arth. Rheum., 2, 44 (1959), the anti-inflammatory activity of the following compounds was determined in a rat model of adjuvant-induced arthritis. Male Wistar-Lewis rats (Mollegaard, Breeding Centre Ltd, BIBY, DK 4623 LI, SKENSVED, P.P. Box 28, DK) with a body weight between 160 g and 200 g are used. Freund's adjuvant (0.1 mL, 6 mg Mycobacterium smegmatis suspension per mL in heavy white paraffin oil, Merck/Darmstadt) was injected into the base of the tail. […] The animals received standardized food Altromin-R (Altrogge, Lage) and had free access to water. The compounds were administered i.p. (a suspension in carboxymethyl cellulose solution in an injection volume of 0.5 mL/100 g body weight) on 12 consecutive days, starting with the day of the adjuvant injection. On day 1 and day 18 of the study, the volume of both hind paws and the body weight were recorded, and in addition on day 18 the arthritis index.

IL-2 production = assay: Interleukin-2 assay (IL-2 production by ELISA after PHA/TPA stimulation); format: cell-based; details: Jurkat E6-1 cells or human lymphocytes stimulated with PHA 10 µg/mL and 10^-8 M TPA; 16-24 hours
Method: (§1) Jurkat E6-1 cell line (ATCC), a human leukemic T cell line or lymphocytes prepared from fresh human blood, are grown in complete culture medium consisting of RPMI-1640 (Mediatech) supplemented with 10% v/v fetal bovine serum (HyClone, Logen, Vermont), penicillin (100 units/mL), streptomycin ([…]), and 2mM L-glutamine (GIBCO, Grand Island, New York). The cells are grown to a concentration of between 1.2 to 1.8 X 10^6 cells/mL before use. The cells are then centrifuged at low speed and resuspended to a concentration of 1.25 X 10^6 cells/mL in fresh medium.
(§2) The compounds to be tested are dissolved in DMSO, and water is added to make a 50% DMSO/water solution. The compounds are then diluted in sterile water such that the DMSO concentrations are less then 0.05%. The cells at a concentration of 1.25 X 10^6 cells/mL are stimulated with phytohemagglutinin 10 µg/mL (PHA) and 10^-8 M phorbol ester (12-O-tetradecanoylphorbol 13-acetate: TPA), (Sigma, St. Louis, Missouri). The compounds are then added and the cells are plated in flat-bottom tissue culture plates (Falcon, Lincoln Park, New Jersey), with 250,000 cells/well. Plates are then incubated at 37°C in a 5% CO2 atmosphere.
(§3) After incubation (16-24 hours), the cells are assayed for IL-2 production and cell viability (MTT). IL-2 production is assayed utilizing a solid phase ELISA immunoassay, sold in kit form by R&D Systems, Inc., Minneapolis, Minnesota.

Jurkat E6-1 cell line = assay: Cell viability (MTT mitochondrial enzyme assay); format: cell-based, human; details: cells of the IL-2 assay after removal of supernatant, MTT 4 hours at 37°C
Method: as §1, §2, §3
Cell viability is measured by the use of a mitochondrial enzyme assay. After removal of the supernatant for the IL-2 assay, Cell Titer 96 (a commercial solution of MTT obtained from Promega, Madison, Wisconsin), is added to the plates and incubated for 4 hours at 37°C. A solubilization solution is then added and incubated overnight. The plates are then read on an ELISA plate reader at a wavelength of 570 nm. Table II presents the results for the Interleukin-2 assay, the cell viability assay and the ratio of cell viability/IL-2 inhibition.

[2] = Body weight change (weight gain) in the rat model of adjuvant-induced arthritis; format: in vivo, Male Wistar-Lewis rats; details: 10 mg/kg/day i.p.; weight gain between day 1 and day 21
Method: Following generally the procedure of Pearson and Wood, Arth. Rheum., 2, 44 (1959), the anti-inflammatory activity of the following compounds was determined in a rat model of adjuvant-induced arthritis. Male Wistar-Lewis rats (Mollegaard, Breeding Centre Ltd, BIBY, DK 4623 LI, SKENSVED, P.P. Box 28, DK) with a body weight between 160 g and 200 g are used. Freund's adjuvant (0.1 mL, 6 mg Mycobacterium smegmatis suspension per mL in heavy white paraffin oil, Merck/Darmstadt) was injected into the base of the tail. Between day 10 and day 14 of the test, immunopathological processes let to chronic inflammation, especially in the form of arthritic and periarthritic symptoms in all parts of the body. The animals received standardized food Altromin-R (Altrogge, Lage) and had free access to water. The compounds were administered i.p. (a suspension in carboxymethyl cellulose solution in an injection volume of 0.5 mL/100 g body weight) on 12 consecutive days, starting with the day of the adjuvant injection. On day 1 and day 18 of the study, the volume of both hind paws and the body weight were recorded, and in addition on day 18 the arthritis index. Cyclosporin A and Prednisolone were used as standard compounds. In addition, table IV presents the percent change in body weight (weight gain) between day 1 and day 21 of the above test.

With `C[C@]12C=CC(=O)C=C1CC[C@@H]1[C@@H]2[C@@H](O)C[C@@]2(C)[C@H]1CC[C@]2(O)C(=O)CO` [Prednisolone] the “% Inhibition” value ([1]; 15 mg/kg/day i.p.) was 100%.
For `CC(C)C12OC1C1OC13C1(C)CCC4=C(COC4=O)C1CCC3(O)C2O` (stereo not drawn) [Example 1, [5aR-(5aα,6α,6aα,7aα,7bβ,8aS*,8bα)]-3,3b,4,5,5a,6,6a,7a,7b,8b,9,10-dodecahydro-5a,6-dihydroxy-8b-methyl-6a-(1-methylethyl)-1H-bisoxireno[4b,5:6,7]phenanthro[1,2-c]furan-1-one], the IC50/IL-2 (IL-2 production) was 0.036 µg/mL (≈ 0.0993 µM), the IC50/MTT (Jurkat E6-1 cell line) was 0.3 to 0.5 µg/mL and the “% Inhibition” value ([1]; 10 mg/kg/day i.p.) was 90%. The “% Change in Body Weight” value [2] was 29.9%.
“[1S-(1α,2β,3α,3aβ,4aR*,4bα,11aα)]-3-chloro-1,2,3,3a,4b,5,6,9,9b,10,11,11a-dodecahydro-1,2,11a-trihydroxy-4b-methyl-2-(1-methylethyl)-7H-oxireno[4b,5]phenanthro[1,2-c]furan-7-one [Example 2]” showed an IC50/IL-2 (IL-2 production) of 0.06 µg/mL and an IC50/MTT (Jurkat E6-1 cell line) of 0.55 µg/mL.
With `CC(C)[C@]12O[C@H]1[C@@H]1O[C@]13[C@]1(O[C@H]1C[C@H]1C4=C(CC[C@@]13C)C(=O)OC4)[C@@H]2O` [Triptolide] the IC50 (IL-2 production) was 0.001 to 0.003 µg/mL (≈ 0.00277 to 0.00832 µM), the IC50 (Jurkat E6-1 cell line; Homo sapiens, Jurkat E6.1) was 0.005 µg/mL (≈ 0.0139 µM) and the “% Inhibition” value ([1]; 0.2 mg/kg/day i.p.) was 70%. For the same molecule, the “% Inhibition” value ([1]; 0.4 mg/kg/day i.p.) was 85% and the “% Inhibition” value ([1]; 0.8 mg/kg/day i.p.) was 76%.
